Measurements from patent US8642609B2, “Modulators of ATP-binding cassette transporters” (Vertex Pharmaceuticals Incorporated, priority 2003, dated 2014).

Molecular target: T1, ΔF508-CFTR (Homo sapiens, UniProt P13569, DEL508-508)
T1 construct: expressed in transfected cells
Experiment: Membrane potential optical assay (FRET/VIPR), identification of correction compounds
Assay type: cell-based
Details: for Emax: relative efficacy
In short: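 NIH3T3 cells stably expressing ΔF508-CFTR incubated 16 hrs at 37° C in serum-free medium with test compound; 27° C incubation as positive control. CFTR then activated with 10 μM forskolin plus 20 μM genistein in Cl^−-free medium; depolarization read by DiSBAC2(3)/CC2-DMPE FRET on VIPR.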

T1 sequence (P13569 with tags, fused parts or gaps DEL508-508): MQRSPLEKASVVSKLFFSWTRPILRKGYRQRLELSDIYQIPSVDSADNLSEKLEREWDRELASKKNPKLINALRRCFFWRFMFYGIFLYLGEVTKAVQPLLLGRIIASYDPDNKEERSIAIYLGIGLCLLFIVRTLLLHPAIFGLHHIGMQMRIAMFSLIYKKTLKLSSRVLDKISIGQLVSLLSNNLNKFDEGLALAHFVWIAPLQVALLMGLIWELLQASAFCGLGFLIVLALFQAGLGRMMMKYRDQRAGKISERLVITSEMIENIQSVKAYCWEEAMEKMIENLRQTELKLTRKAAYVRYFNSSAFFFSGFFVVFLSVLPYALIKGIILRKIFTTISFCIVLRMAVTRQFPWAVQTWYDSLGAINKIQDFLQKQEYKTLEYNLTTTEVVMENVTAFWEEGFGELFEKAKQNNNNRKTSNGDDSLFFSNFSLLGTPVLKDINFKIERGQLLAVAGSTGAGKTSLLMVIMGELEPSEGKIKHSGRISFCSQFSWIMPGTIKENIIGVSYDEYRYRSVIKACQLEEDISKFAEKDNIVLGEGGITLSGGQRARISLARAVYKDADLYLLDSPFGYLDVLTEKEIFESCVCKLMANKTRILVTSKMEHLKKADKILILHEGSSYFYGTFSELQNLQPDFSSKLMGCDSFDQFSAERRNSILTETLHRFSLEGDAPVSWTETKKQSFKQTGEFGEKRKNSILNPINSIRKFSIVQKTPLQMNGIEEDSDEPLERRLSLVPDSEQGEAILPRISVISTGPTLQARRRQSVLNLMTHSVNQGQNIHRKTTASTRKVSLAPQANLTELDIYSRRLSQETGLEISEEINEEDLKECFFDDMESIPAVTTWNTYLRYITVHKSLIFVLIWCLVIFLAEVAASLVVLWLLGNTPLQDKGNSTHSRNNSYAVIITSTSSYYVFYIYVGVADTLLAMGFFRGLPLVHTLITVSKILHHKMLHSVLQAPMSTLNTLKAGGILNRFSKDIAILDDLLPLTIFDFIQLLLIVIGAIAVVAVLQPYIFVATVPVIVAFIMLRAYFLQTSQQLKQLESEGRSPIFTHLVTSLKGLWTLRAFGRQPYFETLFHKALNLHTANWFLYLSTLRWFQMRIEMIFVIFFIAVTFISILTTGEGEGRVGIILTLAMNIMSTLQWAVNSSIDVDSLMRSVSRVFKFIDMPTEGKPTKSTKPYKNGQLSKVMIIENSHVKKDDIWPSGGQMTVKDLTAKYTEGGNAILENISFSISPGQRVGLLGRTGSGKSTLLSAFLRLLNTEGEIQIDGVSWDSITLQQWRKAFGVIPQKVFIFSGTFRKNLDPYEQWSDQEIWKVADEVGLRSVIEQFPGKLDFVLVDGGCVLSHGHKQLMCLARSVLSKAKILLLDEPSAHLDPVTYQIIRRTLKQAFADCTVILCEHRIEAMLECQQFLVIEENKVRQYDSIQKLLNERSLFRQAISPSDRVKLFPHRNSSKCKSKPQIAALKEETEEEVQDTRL

SMILES | EC50 [µM] | Emax [%]
CC(c1nc2ccc(S(C)(=O)=O)cc2c(=O)n1C)N1CCN(S(=O)(=O)c2ccccc2)CC1 (centres unmarked) [compound 138] | 10 to 25 | < 25
COc1ccc(S(=O)(=O)NCCCN(C(C)c2nc3ccccc3c(=O)n2C)S(=O)(=O)c2ccc(OC)cc2)cc1 (centres unmarked) [compound 205] | 25 to 60 | < 25
CC(NC[C@@H]1CCCCN1S(=O)(=O)c1ccc(Br)cc1)c1nc2ccccc2c(=O)n1C (some centres unmarked) [compound 215] | 25 to 60 | < 25
COc1ccc(S(=O)(=O)N2CCN(C(C)c3nc(N4CCC(C)CC4)c4cc(F)ccc4n3)CC2)cc1 (centres unmarked) [compound 372] | 10 to 25 | > 100
CC(=O)N1CCN(C(C)c2nc3ccc(Cl)cc3c(=O)n2C)CC1 (centres unmarked) [compound 60] | 25 to 60 | < 25
COc1ccc2nc(C(C)N3CCN(S(=O)(=O)c4ccc(Br)cc4)CC3)n(C)c(=O)c2c1 (centres unmarked) [compound 132] | < 10 | > 100
CCCn1c(C(C)N2CCN(S(=O)(=O)c3ccc4ccccc4c3)CC2)nc2ccccc2c1=O (centres unmarked) [compound 47] | < 10 | 25 to 100
C[C@@H](c1nc(N2CCCCC2)c2ccccc2n1)N1CCN(S(=O)(=O)c2ccc(Cl)cc2)CC1 [compound 380] | < 10 | > 100
CC(c1nc2ccccc2c(=O)[nH]1)N1CCN(S(=O)(=O)c2ccc(Cl)cc2)CC1 (centres unmarked) [compound 131] | 10 to 25 | < 25
COc1ccc(S(=O)(=O)N2CCN(C(C)c3nc4cccc(Cl)c4c(=O)n3C)CC2)cc1 (centres unmarked) [compound 106] | 10 to 25 | < 25
CC(c1nc2ccccc2c(=O)n1C)N1CCN(S(=O)(=O)c2csc3ccccc23)CC1 (centres unmarked) [compound 272] | < 10 | 25 to 100
CC(c1nc2cc(Cl)ccc2c(=O)n1C)N1CCN(S(=O)(=O)c2ccc(OC(F)(F)F)cc2)CC1 (centres unmarked) [compound 99] | < 10 | 25 to 100
CCn1c(C(C)N2CCN(S(=O)(=O)c3ccc(C)cc3)CC2)nc2ccc(Cl)cc2c1=O (centres unmarked) [compound 36] | 25 to 60 | 25 to 100
CC(c1nc2ccccc2c(=O)n1C)N1CCN(S(=O)(=O)c2ccc(F)cc2)CC1 (centres unmarked) [compound 10] | 25 to 60 | 25 to 100
COc1ccc(S(=O)(=O)N2CCN(C(C)c3nc4ccccc4c(=O)n3C)CC2)cc1 (centres unmarked) [compound 6] | 10 to 25 | 25 to 100
CCCn1c(C(C)N2CCN(C(=O)CSc3ccccc3)CC2)nc2ccccc2c1=O (centres unmarked) [compound 46] | 25 to 60 | 25 to 100
CC(=O)Nc1nc(C)c(S(=O)(=O)N2CCN(C(C)c3nc4ccccc4c(=O)n3C)CC2)s1 (centres unmarked) [compound 243] | 25 to 60 | 25 to 100
COCCOc1nc(C(C)N2CCN(S(=O)(=O)c3ccc(OC)cc3)CC2)nc2ccccc12 (centres unmarked) [compound 295] | 25 to 60 | 25 to 100
CCCn1c([C@H](C)N2CCN(S(=O)(=O)c3ccc(Br)cc3)CC2)nc2ccccc2c1=O [compound 147] | < 10 | > 100
CC(c1nc(N2CCOCC2)c2ccccc2n1)N1CCN(S(=O)(=O)c2ccc(Br)cc2)CC1 (centres unmarked) [compound 223] | 10 to 25 | > 100
CCN(CC)c1nc(C(C)N2CCN(S(=O)(=O)c3ccc(Cl)cc3)CC2)nc2ccccc12 (centres unmarked) [compound 235] | < 10 | 25 to 100
Cc1ccccc1C(=O)N1CCN(C(C)c2nc3ccccc3c(=O)n2C)CC1 (centres unmarked) [compound 32] | < 10 | < 25

SMILES | EC50 [µM] | Emax [%]
CCN(CC)c1nc(C(C)N2CCN(S(=O)(=O)c3ccc(OC)cc3)CC2)nc2ccccc12 (centres unmarked) [compound 195] | 10 to 25 | 25 to 100
CCCC(c1nc2ccccc2c(=O)[nH]1)N1CCN(S(=O)(=O)c2ccc(OC)cc2)CC1 (centres unmarked) [compound 335] | 10 to 25 | 25 to 100
COc1ccc(S(=O)(=O)N2CCN(C(C)c3nc(OCCN4CCCC4)c4ccccc4n3)CC2)cc1 (centres unmarked) [compound 299] | 10 to 25 | 25 to 100
CC(c1nc2ccc(Cl)cc2c(=O)n1C)N1CCN(C(=O)c2ccccc2)CC1 (centres unmarked) [compound 38] | 25 to 60 | < 25
COc1ccc(S(=O)(=O)N2CCN(C(C)c3ncc(Br)c(OC4CCCC4)n3)CC2)cc1 (centres unmarked) [compound 381] | < 10 | > 100
CC(c1nc2ccccc2c(=O)n1C)N1CCN(S(=O)(=O)c2ccc(CC#N)cc2)CC1 (centres unmarked) [compound 330] | 25 to 60 | 25 to 100
CC(c1nc2ccc(Cl)cc2c(=O)n1C)N1CCN(C(=O)c2cccc(Cl)c2)CC1 (centres unmarked) [compound 83] | 10 to 25 | < 25
CC(c1nc2cc(Cl)ccc2c(=O)n1C)N1CCN(S(=O)(=O)c2ccc(S(C)(=O)=O)cc2)CC1 (centres unmarked) [compound 110] | 10 to 25 | < 25
CCc1nc2ccccc2c(=O)n1C [compound 87] | 25 to 60 | < 25
CC(c1nc2ccc(Cl)cc2c(=O)n1C)N1CCN(C(=O)c2ccccc2Cl)CC1 (centres unmarked) [compound 39] | 25 to 60 | 25 to 100
COc1ccc(S(=O)(=O)N2CCN(C(C)c3nc(N4CC5CCC4C5)c4ccccc4n3)CC2)cc1 (centres unmarked) [compound 361] | < 10 | > 100
CCCC1CCN(c2nc(C(C)N3CCN(S(=O)(=O)c4ccc(OC)cc4)CC3)nc3ccccc23)CC1 (centres unmarked) [compound 365] | < 10 | > 100
COc1ccc(S(=O)(=O)N2CCN(C(C)c3nccc(N4CCCCC4)n3)CC2)cc1 (centres unmarked) [compound 360] | 25 to 60 | 25 to 100
COc1ccc(S(=O)(=O)NC2CCN(C(C)c3nc4ccccc4c(=O)n3C)C2)cc1 (centres unmarked) [compound 161] | 25 to 60 | < 25
CC(c1nc2ccccc2c(=O)n1C)N1CCN(S(=O)(=O)c2ccc(C(C)(C)C)cc2)CC1 (centres unmarked) [compound 13] | 25 to 60 | < 25
CC(c1nc2ccccc2c(=O)n1C)N1CCN(S(=O)(=O)c2ccccc2F)CC1 (centres unmarked) [compound 253] | 25 to 60 | 25 to 100
CCc1nc(N(C)C)c2ccccc2n1 [compound 159] | 25 to 60 | < 25
CC(c1nc2ccccc2c(=O)n1C)N1CCN(S(=O)(=O)c2ccc(Br)cc2)CC1 (centres unmarked) [compound 51] | 10 to 25 | > 100
COc1ccc(S(=O)(=O)Nc2ccc(NC(C)c3nc4ccccc4c(=O)n3C)cc2)cc1 (centres unmarked) [compound 307] | 25 to 60 | 25 to 100
CC(c1nc2ccc(Cl)cc2c(=O)n1C)N1CCN(C(=O)Nc2ccc(F)cc2F)C(C)C1 (centres unmarked) [compound 3] | 25 to 60 | < 25
COc1ccc(S(=O)(=O)N2CCN(Cc3nc4ccccc4c(=O)[nH]3)CC2)cc1 [compound 383] | 25 to 60 | < 25
CC(NC1CCN(S(=O)(=O)c2ccc(Cl)cc2)CC1)c1nc2ccccc2c(=O)n1C (centres unmarked) [compound 209] | 10 to 25 | 25 to 100

SMILES | EC50 [µM] | Emax [%]
CC(c1nc2ccccc2c(=O)n1C)N1CCN(S(=O)(=O)c2cc(S(=O)(=O)c3ccccc3)cs2)CC1 (centres unmarked) [compound 263] | 25 to 60 | < 25
CC(c1nc2ccccc2c(=O)n1C)N1CCN(S(=O)(=O)Cc2ccccc2)CC1 (centres unmarked) [compound 278] | 25 to 60 | < 25
COc1ccc(S(=O)(=O)N2CCN(C(C)c3nc(N4CC[C@@H](NC(C)=O)C4)c4ccccc4n3)CC2)cc1 (some centres unmarked) [compound 394] | 25 to 60 | 25 to 100
COc1ccc(S(=O)(=O)N2CCN(C(C)c3nc(OC(C)(C)C)c4ccccc4n3)CC2)cc1 (centres unmarked) [compound 311] | < 10 | > 100
COc1ccc(S(=O)(=O)N2CCN(C(C)c3nc(N(C)CC4OCCO4)c4ccccc4n3)CC2)cc1 (centres unmarked) [compound 395] | 10 to 25 | 25 to 100
CC(c1nc2ccccc2c(=O)n1C)N1CCN(S(=O)(=O)c2cccc3ccccc23)CC1 (centres unmarked) [compound 12] | 10 to 25 | 25 to 100
COc1ccc(S(=O)(=O)N2CCN(C(C)c3nc(N(C)C)c4ccccc4n3)CC2)cc1 (centres unmarked) [compound 193] | 25 to 60 | 25 to 100
CCn1c(C(C)N2CCN(S(=O)(=O)c3ccccc3)CC2)nc2ccc(Cl)cc2c1=O (centres unmarked) [compound 37] | 10 to 25 | 25 to 100
CC(Nc1ccc(NS(=O)(=O)c2ccc(Cl)cc2)cc1)c1nc2ccccc2c(=O)n1C (centres unmarked) [compound 308] | < 10 | 25 to 100
CCCOc1nc(CC)nc2ccccc12 [compound 158] | 25 to 60 | < 25
CC(c1nc2ccccc2c(=O)n1C)N1CC2CC1CN2S(=O)(=O)c1ccc(Br)cc1 (centres unmarked) [compound 177] | 25 to 60 | 25 to 100
CC(c1nc2ccccc2c(=O)n1C)N(C)C1CCN(S(=O)(=O)c2ccc(Cl)cc2)CC1 (centres unmarked) [compound 315] | 25 to 60 | 25 to 100
CC(c1nc2ccc(Cl)cc2c(=O)n1C)N1CCN(C(=O)c2ccc(C(F)(F)F)cc2)CC1 (centres unmarked) [compound 78] | 10 to 25 | < 25
COc1ccc(S(=O)(=O)N2CCN(C(C)c3nc(NC4CCCCC4)c4ccccc4n3)CC2)cc1 (centres unmarked) [compound 304] | < 10 | 25 to 100
COc1nc(C(C)N2CCN(S(=O)(=O)c3ccc(Br)cc3)CC2)nc2ccccc12 (centres unmarked) [compound 227] | 25 to 60 | 25 to 100
COc1ccc(S(=O)(=O)N2CCN(C(C)c3nc(N4CCSCC4)c4ccccc4n3)CC2)cc1 (centres unmarked) [compound 321] | < 10 | > 100
CC(c1nc2ccccc2c(=O)n1C)N1CCN(S(=O)(=O)c2ccc(OC(F)F)cc2)CC1 (centres unmarked) [compound 293] | 25 to 60 | > 100
CCCn1c(C(C)N2CCN(S(=O)(=O)c3ccc(C)cc3)CC2)nc2ccccc2c1=O (centres unmarked) [compound 29] | 10 to 25 | > 100
COc1ccc(S(=O)(=O)N2CCN(C(C)c3nc(OC4CCC4)c4ccccc4n3)CC2)cc1 (centres unmarked) [compound 398] | < 10 | > 100
CCSc1ccc(S(=O)(=O)N2CCN(C(C)c3nc4ccccc4c(=O)n3C)CC2)cc1 (centres unmarked) [compound 351] | 25 to 60 | < 25
